Laboratory results as given in US9820997B2, “Pharmaceutical composition for treating disease associated with demyelination of neurons and method of using the pharmaceutical composition” (Samsung Electronics Co., Ltd., priority 2014, dated 2017).

Legend:
[1] = system: PMP22; test: PMP22 protein amount in PMP22-overexpressing SH-SY5Y cells by Western blot; type: cell-based, human; settings: for amount of the PMP22 protein compared to negative control and positive control (AA): FIGS. 5A/5B
Protocol: (§1) SH-SY5Y cells were inoculated at a concentration of 10^5 cells/ml in each well of a 12-well plate including 2 ml of a DMEM medium containing 10% FBS, 100 units/ml of penicillin, and 100 units/ml of streptomycin and incubated until the cell density was about 60% to about 65% in a 5% CO2 incubator at 37°. Then, dapsone (4,4′-diaminodiphenylsulfone, DDS) (available from Sigma), MADDS (available from Sigma), SSZ (available from Sigma), and SCM (available from Sigma) were respectively added to the wells at various concentrations and incubated for 24 hours under the same conditions. Vitamin C (ascorbic acid, AA) (available from Sigma) was used as the positive control group. Vitamin C is known as having an effect of treating peripheral neuropathy by using a cAMP modulator. SH-SY5Y cells are a human-derived cell line used in scientific research. The original cell line, SK-N-SH from which SH-SY5Y cells were subcloned, was isolated from a bone marrow biopsy taken from a person with neuroblastoma. SH-SY5Y cells are often used as in vitro models of neuronal function and differentiation. The SH-SY5Y cells used herein have been modified to consistently overexpress the human PMP22 gene by lentiviral mediated integration of PMP22 into a chromosome.
After removing 2 ml of the culture medium, the SH-SY5Y cells were washed with phosphate buffered saline (PBS), and a lysis solution, 0.5% Triton X-100, in PBS was added thereto. Then, cells were collected using a scraper, left in ice for 30 minutes, and then, the cells were disrupted. Using a bicinchoninic acid (BCA) protein assay, the amount of protein in each sample was normalized to 1 ug/ul. SDS-PAGE (Invitrogen) was performed on the sample, and then Western blotting was performed with rabbit anti-PMP22 (Novus biological) and rabbit anti-actin (Sigma) primary antibodies, and an anti-rabbit secondary antibody.

[2] = system: PMP22 mRNA; test: PMP22 mRNA expression in SH-SY5Y cells by RT-PCR; type: cell-based, human; settings: according to DDS concentration; FIG. 2
Protocol: as §1, with “SH-SY5Y cells are often used as in vitro models of neuronal function and differentiation. The SH-SY5Y cells used herein have been modified to consistently overexpress the human PMP22 gene by lentiviral mediated integration of PMP22 into a chromosome.” left out
Also, RNA from treated and untreated SH-SY5Y cells was extracted by with Trizol (Invitrogen). PM22 gene expression was analyzed by using a one-step RT-PCR kit (Qiagen), whereby the extracted RNA was mixed with a PMP22 gene specific primer set of SEQ ID NOS: 1 and 2, and a real time-PCR (RT-PCR) was performed to confirm the degree of mRNA expression.

[3] = system: Zebrafish (Danio rerio); test: Remyelination in MTZ-demyelinated genetically engineered zebrafish, confocal fluorescence; type: in vivo; settings: demyelinated central and peripheral nervous system; 10 uM
[4] = system: Tr-J mice (CMT mouse model); test: Rotarod test in mice; type: in vivo; settings: 50 mg/kg per day orally for 2 months
[5] = system: Tr-J mice (CMT mouse model); test: Sciatic nerve morphology by toluidine blue staining and g-ratio; type: in vivo; settings: 50 mg/kg, 2 months
Description: In this example, the effect of sulfasalzine on the CMT was investigated using Trembler-J (Tr-J) mice. The Tr-J mouse has a missense mutation in the murine peripheral myelin protein-22 gene (Pmp22). Pmp22 mutations are believed to cause the neuropathies of Charcot-Marie-tooth disease in humans (Nature 356, 241-244 (19 Mar. 1992); doi:10.1038/356241a0). Two month old heterozygous Tr^J mice in the C57BL/6J background were obtained from Jackson Laboratories (Bar Harbor, Me.). Matings between Tr-J heterozygous females and males in the C57BL/6 genetic background were implemented to generate Tr-J heterozygous and wild-type controls.
Sulfasalazine was obtained from Sigma-Aldrich, St. Louis. Sulfasalazine (50 mg/kg daily) was administered orally to female mice (n=4-5 per group) via sulfasalazine-containing drinking water. Before sulfasalazine oral intervention, weight and daily water intake of the mice was measured to determine the dose of sulfasalazine. Each Tr-J and WT mice were administered sulfasalazine drinking water for 2 months (50 mg/kg daily).
After 2 months oral intervention, sciatic nerves were harvested from mice (WT+/−50 mg/kg sulfasalazine and Trembler J+/−50 mg/kg sulfasalazine). Nerves were fixed in 2% (w/v) glutaraldehyde in 0.1 M phosphate buffer (pH 7.4) for 4 h, followed by washing with 0.1 M phosphate buffer. […] Sample sections were evaluated using light microscopy.

[6] = system: Tr-J mice (CMT mouse model); test: Twitch/tetanus isometric force of soleus muscle; type: in vivo; settings: 50 mg/kg, 2 months, vs placebo-treated mice, FIG. 11

**Q.** Which “amount of the PMP22 protein compared to negative control and positive control (AA)” value [1] does the source give for `Nc1ccc(S(=O)(=O)c2ccc(N)cc2)cc1` [DDS, 4,4′-diaminodiphenylsulfone] here?
**A.** The value was “significantly decreased”.

**Q.** And the “amount of PMP22 protein” value ([1]; as the concentration of DDS increases, 24 hours, n=4, FIGS. 1A/1B)?
**A.** Its value is “decreased”.

**Q.** What about the “expression of PM22 mRNA” value [2] of the same compound?
**A.** The value was “did not show a significant difference”.

**Q.** And the “effect on the promotion of remyelination” value [3]?
**A.** The value was “confirmed”.

**Q.** How did the “amount of the PMP22 protein compared to negative control and positive control (AA)” value [1] turn out when `CC(=O)Nc1ccc(S(=O)(=O)c2ccc(N)cc2)cc1` [MADDS, mono N-acetyldapsone] was run?
**A.** Its value is “significantly decreased”.

**Q.** And the “effect on the promotion of remyelination” value [3]?
**A.** Its value is “confirmed”.

**Q.** For `CC(=O)NS(=O)(=O)c1ccc(N)cc1` [SCM, N-[(4-aminophenyl)sulfonyl]acetamide], which “amount of the PMP22 protein compared to the control group” value ([1]; vs DMSO control, FIGS. 4A/4B) is on record?
**A.** The value was “decreased”.

**Q.** What about the “effect on the promotion of remyelination” value [3] of the same compound?
**A.** The value was “confirmed”.

**Q.** `O=C(O)c1cc(/N=N/c2ccc(S(=O)(=O)Nc3ccccn3)cc2)ccc1O` [SSZ] was tested. Which “effect on the promotion of remyelination” value [3] did it give?
**A.** The value was “confirmed”.

**Q.** What about the time on rod ([4]; Tr-J mice, vs placebo-treated Tr-J mice) of the same compound?
**A.** The time on rod was “significantly increased”.

**Q.** What about the time on rod ([4]; WT mice, vs placebo-treated WT mice) of the same compound?
**A.** The time on rod was “decreased”.

**Q.** What about the “g-ratio of sciatic nerve” value ([5]; Tr-J mice, vs vehicle treated Tr-J mice, FIG. 10C) of the same compound?
**A.** The value was “significantly lower”.

**Q.** And the “number of myelinated axons in sciatic nerve” value ([5]; Tr-J mouse, vs vehicle-treated Tr-J mouse, FIG. 10A)?
**A.** The value was “significantly increased”.

**Q.** What about the “tetanus contraction in Soleus tendon” value [6] of the same compound?
**A.** Its value is “significantly increased”.

**Q.** What about the “twitch contraction in Soleus tendon” value [6] of the same compound?
**A.** The value was “significantly increased”.
